Source: paper PMC6060383, “Synthesis and pharmacological evaluation of novel isoquinoline N-sulphonylhydrazones designed as ROCK inhibitors” (Journal of Enzyme Inhibition and Medicinal Chemistry, 2018)
Values after ≈ are worked out from the molar mass of the structure shown.

Columns and labels:
[1] = Water solubility assay (UV spectrophotometric method); assay type: physicochemical; settings: aqueous buffer, thermodynamic from solid, water (buffer pH 7.4), stirring 4 h at 37 °C
Protocol: The solubility assay was performed considering the absorptivity of compounds under ultraviolet spectroscopy as described by Schneider et al.[20] Assay wavelength was determined through λmax characteristic of each compound. Saturated aqueous solutions were prepared (0.8–1.0 mg/mL) and kept under stirring for 4 h at 37 °C. The supernatant was filtered in […] filters and transferred to a quartz cuvette (10 mm) for spectra acquisition. Solubility was determined by linear regression used as Excel graph plots, solutions were prepared by dilutions of the original solution in methanol. Data were collected in triplicate and the mean values were used to create the graph plots. The correlation coefficient (R^2) values were between 0.9982 and 1.
The N-sulphonylhydrazone derivatives 5a–h were evaluated for their ability to inhibit both ROCK1 and ROCK2 isoforms by measuring the phosphorylation of the Ulight-RRRSLLE substrate using human recombinant enzymes expressed in Sf9[23] and Sf21^24 cells, respectively. Prior to this assay, we evaluated the solubility of these compounds in water (buffer pH 7.4) to ensure that the inhibition percentages were not influenced by the precipitation of the compounds under test conditions. The enzymatic assay was initially performed at a screening concentration of 3 μM, which is capable of guaranteeing the solubility of most of the compounds, and the obtained results are shown in Table 2.

[2] = Chemical stability study (pH 2.0 and pH 7.4 buffers); assay type: physicochemical; settings: 37 °C
Protocol: Two microliters ([…]) of a concentrated solution of the compound under examination (40 mM stock solution solubilized in DMSO) and 248 μL of acid (0.2 M potassium chloride and 0.2 M HCl; pH 2.0) or neutral (phosphate dibasic, pH 7.4) buffer were added to a 2 ml Eppendorf microtube. After vortexing, the mixture was placed in a water bath at 37 °C under vigorous stirring for 0, 30, 60, 120, and 240 min. After each reaction, 248 μL of basic buffer (phosphate buffer, pH 8.4) was added to neutralize the pH of the medium in the experiments using acidic buffer. The compound was extracted using 1 ml of acetonitrile followed by vigorous vortexing and freezing of the aqueous phase (−10 °C). The organic phase was separated, filtered, and analysed using an HPLC-PDA (acetonitrile/water […], 0.05% of TFA).
Due to the possible chemical instability of the imine functional group present in the N-sulphonylhydrazone framework, the stability profiles of compounds 5b (LASSBio-2020) and 11 (LASSBio-2065) were determined. The study was conducted under two conditions, pH 2.0 and pH 7.4, to mimic the acidic stomach and the neutral plasma environments, respectively. The compounds were examined in the presence of acid (pH 2) and neutral (pH 7.4) buffers with stirring for 240 min at a controlled temperature (37 °C).

solubility at 4 h [1]: 54 µM (≈ 16.8 µg/mL)
recovery percentage under acidic conditions ([2]; pH 2, after 30 min of incubation): 64%
degradation in neutral medium ([2]; pH 7.4, after 4 h): less than 20%
Compound: O=S(=O)(N/N=C/c1ccccc1)c1cccc2cnccc12 [Compound 5b, (E)-N′-benzylideneisoquinoline-5-sulphonohydrazide]
